Experimental data published in PMC12717099, “Peptidoglycan recruitment by a penicillin binding protein” (Nature Communications, 2025).

How the values were obtained:
Type in all cases: cell-based, Enterococcus faecium
[1] = system: E. faecium D344SRF, Wild Type; settings: strain Wild Type; disks Ampicillin 10 μg, Penicillin 10 U, Ceftriaxone 30 μg; BHI agar, 37 °C, 24 h; n=3
Experimental: (§1) E. faecium strains were streaked fresh from −80 °C stored glycerol stocks onto brain heart infusion (BHI) agar plates and incubated for 18 h at 37 °C. Strains harboring the plasmid derivatives were grown under antibiotic pressure on agar plates containing kanamycin at 1500 µg/ml. A single colony was inoculated into BHI or BHI-kanamycin (1500 µg/ml) for overnight cultures (18 h).
Antibiotic disks used were manufactured by BD BBL^TM. Disk diffusion assays were performed according to the Clinical and Laboratory Standards Institute (CLSI) guidance. Overnight cultures were inoculated into 3 ml of BHI or BHI-kanamycin (1500 µg/ml) broth with a dilution of 1:100 and incubated until an OD600 of ~0.5 was reached. The OD600 was adjusted to 0.01 to get the inoculum suspension. […] The plates were incubated at 37 °C and the zones of inhibition were measured after 24 h. All experiments were conducted in triplicate.

[2] = system: E. faecium D344SRF pCWR624 (PBP5 plasmid); assay: Disk diffusion assay, pCWR624; settings: strain pCWR624; 37 °C, 24 h; n=3
Experimental: (§2) The synthetic genes were purchased from GeneWiz (South Plainfield, NJ). The ribosome binding site sequence AGGAGG (Shine-Dalgarno), and a string of five A’s followed by the sequence […], that corresponds to the first 15 bp found in pbp5 from E. faecium C68 were added upstream of the START codon. The terminator sequence […] was added downstream of the STOP codon. BamHI restriction sites were added to the flanking 5′ and 3′ ends. The synthetic genes were inserted into the vector pCWR624Δpbp5. This vector was derived from pCWR624[10], in which the pbp5 gene from D366 was excised by digestion with BamHI followed by re-ligation of the vector, allowing subsequent insertion of modified synthetic pbp5s into the BamHI site downstream of ftsWEfm and psr from E. faecium C68[10]. The synthetic genes were inserted in a BamHI site located downstream of psr. The proper orientation was confirmed by PCR amplification using the forward primer OR_pbp5_FOR_1 (5′-[…]-3′) and the reverse primer OR_pbp5_REV_1 (5′-[…]-3′). Plasmids were sequence verified for the specific binding site mutations. The resulting constructions were electroporated into the natural pbp5(-) mutant E. faecium D344SRF with a selection on brain heart infusion agar (BHI) plates containing kanamycin (1500 µg/ml).
as §1
(§3) Antibiotic disks used were manufactured by BD BBL^TM. Disk diffusion assays were performed according to the Clinical and Laboratory Standards Institute (CLSI) guidance. Overnight cultures were inoculated into 3 ml of BHI or BHI-kanamycin (1500 µg/ml) broth with a dilution of 1:100 and incubated until an OD600 of ~0.5 was reached. […] The plates were incubated at 37 °C and the zones of inhibition were measured after 24 h. […]

[3] = system: E. faecium D344SRF pCWR624Δpbp5 (empty plasmid); assay: Disk diffusion assay, pCWR624Δpbp5; settings: strain pCWR624Δpbp5; 37 °C, 24 h; n=3
Experimental: as §2, §1, §3

[4] = system: E. faecium D344SRF pCWR624Δpbp5_pbp5_V1; assay: Disk diffusion assay, pbp5_V1; settings: strain pbp5_V1 (N523A); 37 °C, 24 h; n=3
Experimental: as §2, §1, §3

[5] = system: E. faecium D344SRF pCWR624Δpbp5_pbp5_V2; assay: Disk diffusion assay, pbp5_V2; settings: strain pbp5_V2 (N523A_Q627A); 37 °C, 24 h; n=3
Experimental: as §2, §1, §3

[6] = system: E. faecium D344SRF pCWR624Δpbp5_pbp5_V3; assay: Disk diffusion assay, pbp5_V3; settings: strain pbp5_V3 (loop 625-631); 37 °C, 24 h; n=3
Experimental: as §2, §1, §3

[7] = system: E. faecium D344SRF pCWR624Δpbp5_pbp5_V4; assay: Disk diffusion assay, pbp5_V4; settings: strain pbp5_V4 (D530A_L533A_W457A); 37 °C, 24 h; n=3
Experimental: as §2, §1, §3

[8] = system: E. faecium D344SRF pCWR624Δpbp5_pbp5_V5; assay: Disk diffusion assay, pbp5_V5; settings: strain pbp5_V5 (Q396A_E397A); 37 °C, 24 h; n=3
Experimental: as §2, §1, §3

[9] = system: E. faecium D344SRF pCWR624Δpbp5_pbp5_V6; assay: Disk diffusion assay, pbp5_V6; settings: strain pbp5_V6 (E284A_E291A_S294A_N295A); 37 °C, 24 h; n=3
Experimental: as §2, §1, §3

[10] = system: E. faecium D344SRF, Wild Type; assay: MIC by broth microdilution, Wild Type; settings: strain Wild Type; BHI broth microdilution, 37 °C, 20 h, read by eye; n=3
Experimental: as §1
MIC determination was performed using a standard broth microdilution technique in duplicate from independent cultures. Overnight cultures were inoculated into 3 ml of BHI or BHI-kanamycin (1500 µg/ml) broth in a dilution of 1:100 and incubated until an OD600 of ~0.5 was reached. Cultures were diluted 1:1000 and inoculated into the 96-well plates with the corresponding antibiotics to be tested. Plates were incubated at 37 °C for 20 h and read by eye. The MICs were defined as the lowest antibiotic concentration that inhibited growth.

[11] = system: E. faecium D344SRF pCWR624 (PBP5 plasmid); assay: MIC by broth microdilution, pCWR624; settings: strain pCWR624; 37 °C, 20 h; n=3
Experimental: as §2, §1
(§4) MIC determination was performed using a standard broth microdilution technique in duplicate from independent cultures. Overnight cultures were inoculated into 3 ml of BHI or BHI-kanamycin (1500 µg/ml) broth in a dilution of 1:100 and incubated until an OD600 of ~0.5 was reached. Cultures were diluted 1:1000 and inoculated into the 96-well plates with the corresponding antibiotics to be tested. Plates were incubated at 37 °C for 20 h and read by eye. […]

[12] = system: E. faecium D344SRF pCWR624Δpbp5 (empty plasmid); assay: MIC by broth microdilution, pCWR624Δpbp5; settings: strain pCWR624Δpbp5; 37 °C, 20 h; n=3
Experimental: as §2, §1, §4

[13] = system: E. faecium D344SRF pCWR624Δpbp5_pbp5_V1; assay: MIC by broth microdilution, pbp5_V1; settings: strain pbp5_V1 (N523A); 37 °C, 20 h; n=3
Experimental: as §2, §1, §4

[14] = system: E. faecium D344SRF pCWR624Δpbp5_pbp5_V3; assay: MIC by broth microdilution, pbp5_V3; settings: strain pbp5_V3 (loop 625-631); 37 °C, 20 h; n=3
Experimental: as §2, §1, §4

[15] = system: E. faecium D344SRF pCWR624Δpbp5_pbp5_V5; assay: MIC by broth microdilution, pbp5_V5; settings: strain pbp5_V5 (Q396A_E397A); 37 °C, 20 h; n=3
Experimental: as §2, §1, §4

[16] = system: E. faecium D344SRF pCWR624Δpbp5_pbp5_V6; assay: MIC by broth microdilution, pbp5_V6; settings: strain pbp5_V6 (E284A_E291A_S294A_N295A); 37 °C, 20 h; n=3
Experimental: as §2, §1, §4

[17] = system: E. faecium D344SRF pCWR624Δpbp5_pbp5_V2; assay: MIC by broth microdilution, pbp5_V2; settings: strain pbp5_V2 (N523A_Q627A); 37 °C, 20 h; n=3
Experimental: as §1

[18] = system: E. faecium D344SRF pCWR624Δpbp5_pbp5_V4; assay: MIC by broth microdilution, pbp5_V4; settings: strain pbp5_V4 (D530A_L533A_W457A); 37 °C, 20 h; n=3
Experimental: as §2, with “The resulting constructions were electroporated into the natural pbp5(-) mutant E. faecium D344SRF with a selection on brain heart infusion agar (BHI) plates containing kanamycin (1500 µg/ml).” left out
MIC determination was performed using a standard broth microdilution technique in duplicate from independent cultures. […] Plates were incubated at 37 °C for 20 h and read by eye. […]

SMILES | Zone Size (mm) [Range] [1] | Zone Size (mm) [Range] [2] | Zone Size (mm) [Range] [3] | Zone Size (mm) [Range] [4] | Zone Size (mm) [Range] [5] | Zone Size (mm) [Range] [6] | Zone Size (mm) [Range] [7] | Zone Size (mm) [Range] [8] | Zone Size (mm) [Range] [9] | MIC (µg/ml) [Range] [10] | MIC (µg/ml) [Range] [11] | MIC (µg/ml) [Range] [12] | MIC (µg/ml) [Range] [13] | MIC (µg/ml) [Range] [14] | MIC (µg/ml) [Range] [15] | MIC (µg/ml) [Range] [16] | MIC (µg/ml) [Range] [17] | MIC (µg/ml) [Range] [18]
CC1(C)S[C@@H]2[C@H](NC(=O)[C@H](N)c3ccccc3)C(=O)N2[C@H]1C(=O)O [Ampicillin] | 32 [30-32] mm | 0 [0] mm | 30 [30-32] mm | 16 [14-16] mm | 26 [26-28] mm | 32 [30-32] mm | 32 [32] mm | 0 [0-10] mm | 0 [0-10] mm | 0.39 [0.39-0.78] µg/ml | 100 [100->200] µg/ml | 0.78 [0.39-1.56] µg/ml | 100 [50-100] µg/ml | < 0.19 [<0.19-0.39] µg/ml | 100 [100] µg/ml | 100 [100] µg/ml | – | –
CC1(C)S[C@@H]2[C@H](NC(=O)Cc3ccccc3)C(=O)N2[C@H]1C(=O)O [Penicillin, penicillin G] | 28 [28-32] mm | 0 [0] mm | 28 [28-32] mm | 0 [0] mm | 26 [26-28] mm | 32 [30-32] mm | 32 [30-32] mm | 0 [0] mm | 0 [0] mm | 0.39 [0.39-0.78] µg/ml | > 200 [>200] µg/ml | 0.39 [0.39-1.56] µg/ml | 200 [200] µg/ml | 0.39 [0.39] µg/ml | 200 [200] µg/ml | 200 [200] µg/ml | 12.5 [12.5-25] µg/ml | 0.39 [0.39] µg/ml
